{"source": "paper PMC7211202", "about": "(Investigational New Drugs, 2019)", "key": {"[1]": {"tested_on": "MDM2-amplified tumors", "details": "cited from earlier work"}, "[2]": {"assay": "Dose-limiting toxicities and maximum tolerated dose", "format": "in vivo", "protocol": "This open-label phase 1 study was conducted at 16 centers (ClinicalTrials.gov, NCT01723020). TP53 mutation status was confirmed by central laboratory assessment. The study was planned with two parts: a 3-part dose escalation (Part 1) and a dose expansion (Part 2). […] Intermediate doses were allowed when deemed appropriate. The dose expansion was planned for patients with MDM2-amplified tumors (group 1; liposarcomas, GBM, and other solid tumors), potentially MDM2-overexpressing tumors (group 2; ER+ metastatic breast cancer), or multiple myeloma (group 3).\nEach patient was monitored for 21 days for the occurrence of dose-limiting toxicities (DLTs), defined as febrile neutropenia, neutropenic infection, grade 4 neutropenia lasting >7 days, grade ≥ 3 thrombocytopenia lasting >7 days (solid tumors only), grade 3 thrombocytopenia with grade ≥ 2 bleeding (solid tumors only), grade 3 or 4 thrombocytopenia with grade > 1 bleeding (multiple myeloma only), grade 4 thrombocytopenia (solid tumors only), or grade 4 thrombocytopenia lasting >14 days (multiple myeloma only), or as grade ≥ 3 nausea, vomiting, or diarrhea after support; grade 3 fatigue lasting >7 days; any other grade ≥ 3 adverse event (AE); grade ≥ 3 kidney injury (multiple myeloma only), or treatment-related AEs not returning to grade ≤ 1 (solid tumors only) per Common Terminology Criteria for Adverse Events (CTCAE), version 4.0. […] Treatment continued until disease progression, intolerable toxicity, or withdrawal of consent."}}, "data": [{"smiles": "CC(C)[C@@H](CS(=O)(=O)C(C)C)N1C(=O)[C@@](C)(CC(=O)O)C[C@H](c2cccc(Cl)c2)[C@H]1c1ccc(Cl)cc1", "note": "[AMG 232]", "values": [{"measurement": "effect of treatment in tumor xenograft models", "setting": "[1]", "result": "tumor growth inhibition"}, {"measurement": "effect on MDM2-amplified tumors in xenograft models", "setting": "[1]; through induction of growth arrest and apoptosis", "result": "regression"}, {"measurement": "DLT observed", "setting": "[2]; 120-mg cohort, patient with esophageal cancer", "result": "grade 3 thrombocytopenia on day 15 that worsened to grade 4 on day 17"}, {"measurement": "Additional patients with cytopenias (grade 4 neutropenia; grade 4 thrombocytopenia) outside of the 21-day DLT evaluation window", "setting": "[2]; 300-mg cohort", "result": "Two"}, {"measurement": "DLT observed", "setting": "[2]; 360-mg cohort, patient with rectal cancer", "result": "grade 4 thrombocytopenia on day 28"}, {"measurement": "DLT observed", "setting": "[2]; 480-mg cohort, patient with head and neck cancer", "result": "grade 3 neutropenia on day 22 that delayed treatment in the next cycle"}, {"measurement": "highest safe and tolerable dose", "setting": "[2]; DLTs and delayed cytopenias considered, QD 7 days Q3W", "result": 240, "unit": "mg"}, {"measurement": "MTD (protocol-specified definition using DLTs incidence)", "setting": "[2]; QD for 7 days Q3W, doses up to 480 mg", "result": "not reached"}, {"measurement": "Patients with DLTs", "setting": "[2]; dose escalation", "result": "Three"}]}]}
